Tests used:
[1] = system: mutants that have heritable sulfonylurea tolerance; assay: Pilot studies, threshold concentration in hydroponic system; assay type: in vivo, soybean; details: sulfonylurea tolerant mutants, 100 mg/L used to irrigate the hydroponic system
From the text: (§1) The same sulfonylurea concentrations would select only highly resistant plants.

wild type soybeans = assay: as above; assay type: in vivo, soybean; details: 100 mg/L used to irrigate the hydroponic system
From the text: as §1

Williams 82 [2] = assay: Test C preemergence (soil) sulfonylurea application; assay type: in vivo, soybean; details: 19 days after treatment
From the text: (§2) W20, a line homozygous for a dominant sulfonylurea-resistance mutation, was compared to Williams 82 in terms of response to preemergence application of three sulfonylurea herbicides. The experimental unit consisted of a single 18 cm pot filled with soil (Sassafras loamy sand with 0.8% organic matter and pH 6.7) in which 6 seeds of a given soybean line were planted 2 cm deep. After planting, each pot was sprayed (using a conveyor belt spray apparatus to emulate field application) with one of 22 different treatments including a check sprayed with AGWT (90% acetone, 4% glycerol, 4% water, 2% Tween-20), and 21 different herbicide treatments using AGWT as a carrier. The herbicide treatments included 7 different concentrations (Table IX) each of three sulfonyl-ureas: Compound 5, Compound 4, and Compound 1. Each herbicide x line treatment was replicated three times. After herbicide treatment, pots were transferred to a greenhouse and arranged in a randomized complete block design. Nineteen days after treatment, each pot was rated visually for herbicide injury using the scale described previously. For each herbicide, analysis of variance on injury ratings was performed separately. Fisher's least significant difference (LSD) was used to determine the significance of line mean differences at each rate using the 95% level of confidence.

W20 = assay: as above; assay type: in vivo, soybean; details: 19 days after treatment
From the text: as §2

mutant W20 = assay: Postemergence herbicide spray test of W4-4 (Table VII-A); assay type: in vivo, soybean; details: two weeks after treatment
Experimental: (§3) To investigate this hypothesis, a postemergence herbicide spray test was conducted to compare the reaction of W4-4 to both W20 and wild-type Williams. The applicant was particularly interested in the resistance of W4-4 to herbicide treatments that were injurious to both Williams and W20 in a previous test (Table VII). […] Twenty-four plants each of W4-4, W20, and Williams were planted in separate 10 cm pots and allowed to grow to the second trifoliolate stage. Each pot constituted a single experimental unit receiving a single herbicide treatment. Herbicide treatments (Table VIIA) were applied as described for the first postemergence test and were replicated twice. Control plants were sprayed with the spray carrier solution only (water with 0.25% X77 surfactant). At two weeks after treatment, each plant was rated for % herbicide injury as described in Table VIII. Analysis of variance on injury ratings was performed separately for each herbicide to calculate treatment means and standard errors. Fisher's least significant difference (LSD) was used to determine the significance of line means differences at each herbicide rate using the 95% level of confidence. […]

Mutant W4-4 = assay: as above; assay type: in vivo, soybean; details: two weeks after treatment
Experimental: as §3

Williams 82 [3] = assay: as above; assay type: in vivo, soybean; details: two weeks after treatment
Experimental: as §3

ALS of W6-1 = assay: In vitro ALS activity of leaf tissue in the presence of Compounds 8 and 9; assay type: biochemical, soybean; details: W6-1, 100 ppb
From the text: (§4) At approximately 1 month after transplantation, some of the selections appeared much healthier than others. For example, W4-4, W4-6, W6-1, W6-2, W6-4, W23-10, and W23-11 recovered very well from the seed soak treatment with Compound 8. These plants were suspected of having a higher level of ALS resistance to Compound 8 than did the parental material from which they were derived. The applicant was also interested to see if any of these selections were cross resistant to an imidazolinone herbicide such as Compound 9. To test this hypothesis, leaf tissue of the one-month-old M2 plants was sampled and assayed in vitro for ALS activity in the presence of Compound 8 and Compound 9. The ALS assay procedure was essentially identical to the previously described ALS assay except that the herbicide concentrations tested were 100 ppb Compound 8 and 10 ppm Compound 9. Williams and mutant W20 soybean plants were also assayed as control genotypes for comparison. Williams contains no genes conferring the ALS-based sulfonylurea resistance while W20 is homozygous for a single mutation conferring ALS-based sulfonylurea resistance.
(§5) Acetolactate synthase (ALS) was extracted from leaves of soybean plants growing vegetatively. The leaves were homogenized in 4 volumes of buffer containing 100 mM hepes (pH 7.5), 1 mM sodium pyruvate, 0.5 mM magnesium chloride, 0.5 mM thiamine pyrophosphate, […], 10% glycerol, 5% PVPP, and 0.2% mercaptoethanol. The homogenate was filtered through cheese cloth and centrifuged at 20,000 g for 20 min. ALS was precipitated from the supernatant with ammonium sulfate. The enzyme was collected between 20 and 60% saturation by centrifugation at 20,000 g for 20 min. The pellet was resuspended in buffer containing 100 mM Hepes, 1 mM sodium pyruvate, and 0.5 mM magnesium chloride, and desalted on PD-10 columns (Pharmacia) equilibrated with the same buffer. ALS assays were carried out in a final volume of 0.5 mL at 30° C. The final reaction mixture contained 100 mM Hepes (pH 7.5), 1 mM magnesium chloride, 60 mM sodium pyruvate, 0.4 mM thiaminepyrophosphate, […], and various concentrations of chlorsulfuron. The assays were initiated with the addition of enzyme ([…]) and terminated with the addition of […] of 6N sulfuric acid. The acidified reaction mixture was heated to 60° C. for 15 min, after which 0.5 mL of 0.5% (W/V) creatine and 0.5 mL of 5% (W/V) napthol (freshly prepared in 2.5 N sodium hydroxide) were added. The reaction mixtures were heated for an additional 15 min at 60° C., and the absorbance was read at 525 nm. Data are expressed in terms of % control (minus Compound 1) activity and are the average of two replications. Fisher's least significant difference (LSD) value (at the 95% level of confidence) was calculated for each Compound 1 concentration to determine the significance of genotype mean differences.

ALS of W4-4 = assay: as above; assay type: biochemical, soybean; details: W4-4, 100 ppb
From the text: as §4, §5

ALS of W4-5 = assay: as above; assay type: biochemical, soybean; details: W4-5, 100 ppb
From the text: as §4, §5

COc1nc(C)nc(NC(=O)NS(=O)(=O)c2ccccc2Cl)n1 [Compound 1, 2-chloro-N-[[(4-methoxy-6-methyl-1,3,5-triazin-2-yl)amino]carbonyl]benzenesulfonamide]
leaf formation [1]: allow unifoliolate (but not trifoliolate) formation
leaf and root development (wild type soybeans): consistently stunt or inhibit leaf and root development
% Injury (Williams 82 [2]; WM 82, 0.3 g/ha preemergence): 30%
% Injury (Williams 82 [2]; WM 82, 1 g/ha preemergence): 50%
% Injury (Williams 82 [2]; WM 82, 3 g/ha preemergence): 73%
% Injury (Williams 82 [2]; WM 82, 10 g/ha preemergence): 95%
% Injury (Williams 82 [2]; WM 82, 30 g/ha preemergence): 100%
% Injury (Williams 82 [2]; WM 82, 100 g/ha preemergence): 100%
% Injury (Williams 82 [2]; WM 82, 300 g/ha preemergence): 100%
% Injury (W20; W20, 0.3 g/ha preemergence): 0%
% Injury (W20; W20, 1 g/ha preemergence): 0%
% Injury (W20; W20, 3 g/ha preemergence): 3%
% Injury (W20; W20, 10 g/ha preemergence): 3%
% Injury (W20; W20, 30 g/ha preemergence): 18%
% Injury (W20; W20, 100 g/ha preemergence): 63%
% Injury (W20; W20, 300 g/ha preemergence): 65%

COC(=O)c1cccnc1S(=O)(=O)NC(=O)Nc1nc(OC)cc(OC)n1 [Compound 8, Methyl 2-[[[[(4,6-dimethoxy-2-pyrimidinyl)amino]carbonyl]amino]sulfonyl]-3-pyridinecarboxylate]
mean % injury (mutant W20; W20, 4 g/ha postemergence): 90%
mean % injury (mutant W20; W20, 16 g/ha postemergence): 93%
mean % injury (mutant W20; W20, 32 g/ha postemergence): 95%
mean % injury (Mutant W4-4; W4-4, 4 g/ha postemergence): 48%
mean % injury (Mutant W4-4; W4-4, 16 g/ha postemergence): 48%
mean % injury (Mutant W4-4; W4-4, 32 g/ha postemergence): 65%
mean % injury (Williams 82 [3]; WM82, 4 g/ha postemergence): 90%
mean % injury (Williams 82 [3]; WM82, 16 g/ha postemergence): 95%
mean % injury (Williams 82 [3]; WM82, 32 g/ha postemergence): 95%
uninhibited ALS activity as % of control (ALS of W6-1): 8.5 % of control
uninhibited ALS activity as % of control (ALS of W4-4): 37.6 % of control
uninhibited ALS activity as % of control (ALS of W4-5): 7.1 % of control

From patent US5084082A, “Soybean plants with dominant selectable trait for herbicide resistance” (priority 1990, dated 1992)
